Source: patent publication US4886884A, “Derivatives from cervinomycin based antibiotics” (The Kitazato Institute, priority 1986, dated 1989)
In brackets after ≈: the same amount, converted by molar mass. Read-outs that look alike come from different tables or passages of the source.

Columns and labels:
[1] = system: Mycoplasma gallisepticum KB-171 (S-6); assay: Antibacterial activity, minimum inhibitory concentration (MIC); assay type: cell-based; conditions: Mycoplasmoides gallisepticum
[2] = system: Bacillus cereus KB-143 (IFO 3001); assay: as above; assay type: cell-based
[3] = system: Staphylococcus aureus KB-210 (ATCC 6538P); assay: as above; assay type: cell-based; conditions: ATCC6538P
[4] = system: Clostridium perfringens (ATCC 13124); assay: microbe, parasite or virus in culture; assay type: cell-based; conditions: ATCC13124
[5] = system: Salmonella typhimurium KB-20; assay: Antibacterial activity, minimum inhibitory concentration (MIC); assay type: cell-based; conditions: Salmonella enterica
[6] = system: Acholeplasma laidlawii KB-174 (PG-8); assay: as above; assay type: cell-based
[7] = system: Mycoplasma pneumoniae KB-173; assay: as above; assay type: cell-based
[8] = system: Escherichia coli KB-176 (NIHJ JC-2); assay: as above; assay type: cell-based
[9] = system: Micrococcus luteus KB-212 (ATCC 9341); assay: as above; assay type: cell-based
[10] = Solubility in different solvents; assay type: physicochemical; conditions: organic solvent or mixture
Text: Compounds (1) of the present invention had the following solubilities in different solvents.

[11] = system: Pseudomonas aeruginosa KB-115 (IFO 3080); assay: Antibacterial activity, minimum inhibitory concentration (MIC); assay type: cell-based
[12] = Acute toxicity test by oral administration; conditions: mouse, in vivo
[13] = system: Bacteroides fragilis KB-169 (ATCC 23749); assay: Antibacterial activity, minimum inhibitory concentration (MIC); assay type: cell-based
[14] = system: Peptococcus variabilis KB-235 (ATCC 14955); assay: as above; assay type: cell-based
[15] = system: Proteus vulgaris KB-127 (IFO 3167); assay: as above; assay type: cell-based
[16] = system: Bacillus subtilis KB-211 (ATCC 6633); assay: as above; assay type: cell-based
[17] = system: Klebsiella pneumoniae KB-214 (ATCC 10031); assay: as above; assay type: cell-based
[18] = system: Gram-positive and Gram-negative bacteria, mycoplasmas; assay: Antimicrobial activity (overall, in words); assay type: cell-based
[19] = system: Clostridium difficile (ATCC 9689); assay: Antibacterial activity, minimum inhibitory concentration (MIC); assay type: cell-based; conditions: Clostridioides difficile, ATCC9689
[20] = system: Bifidobacterium bifidum (ATCC 11146); assay: as above; assay type: cell-based
in vivo = conditions: mouse, po
[21] = acetic acid, read-out: Solubility in Acetic acid
[22] = dmso, read-out: Solubility in DMSO
[23] = methanol, read-out: Solubility in Methanol
[24] = IFO3001, inoculum 1 × 10^6 cells/ml, 37° C., read-out: MIC
[25] = inoculum 1 × 10^6 cells/ml, 37° C., read-out: MIC
[26] = NIHJJC2, inoculum 1 × 10^6 cells/ml, 37° C., read-out: MIC
[27] = ATCC9341, inoculum 1 × 10^6 cells/ml, 37° C., read-out: MIC
[28] = IFO3080, inoculum 1 × 10^6 cells/ml, 37° C., read-out: MIC
[29] = ATCC23749, inoculum 1 × 10^6 cells/ml, 37° C., read-out: MIC
[30] = ATCC11146, inoculum 1 × 10^6 cells/ml, 37° C., read-out: MIC
[31] = IFO3167, inoculum 1 × 10^6 cells/ml, 37° C., read-out: MIC
[32] = ATCC6633, inoculum 1 × 10^6 cells/ml, 37° C., read-out: MIC
[33] = ATCC10031, inoculum 1 × 10^6 cells/ml, 37° C., read-out: MIC

COc1cc2oc3c(O)c4ccc5cc6c(c(O)c5c4c(O)c3c(=O)c2cc1OC)C(=O)N1CCOC1(C)C6 (centres unmarked) [Cervinomycin A1, reference compound]
MIC [1]: 12.5 µg/mL (≈ 23.6 µM) | MIC ([2]; IFO3001): 10 µg/mL (≈ 18.9 µM) | MIC [3]: 5 µg/mL (≈ 9.44 µM) | MIC [4]: 1.25 µg/mL (≈ 2.36 µM) | MIC [5]: > 10 µg/mL | MIC [6]: 12.5 µg/mL (≈ 23.6 µM) | MIC ([7]; KB173): 12.5 µg/mL (≈ 23.6 µM) | MIC ([8]; NIHJJC2): > 10 µg/mL | MIC ([9]; ATCC9341): 5 µg/mL (≈ 9.44 µM) | solubility [10, 21]: 23 µg/mL (≈ 43.4 µM) | solubility [10, 22]: 78 µg/mL (≈ 147 µM) | solubility [10, 23]: 0.3 µg/mL (≈ 0.567 µM) | MIC ([11]; IFO3080): > 10 µg/mL | LD50 [12]: 320 mg/kg | MIC ([13]; ATCC23749): 1.25 µg/mL (≈ 2.36 µM) | MIC [14]: 0.62 µg/mL (≈ 1.17 µM) | MIC ([15]; IFO3167): > 10 µg/mL | MIC ([16]; ATCC6633): 2.5 µg/mL (≈ 4.72 µM) | MIC ([17]; ATCC10031): > 10 µg/mL

COc1cc2oc3c(c(=O)c2cc1OC)C(=O)c1c(ccc2c(C)c4c(c(OC)c12)C(=O)N1CCOC1(C)C4)C3=O (centres unmarked) [C,O-dimethyl Cervinomycin A2]
antimicrobial activity [18]: substantially equal to those of Cervinomycin A1 and A2

CCC[C@@H]1C[C@@H](C(=O)N[C@@H]([C@H]2O[C@H](SC)[C@H](O)[C@@H](O)[C@H]2O)[C@H](C)Cl)N(C)C1 [Clindamycin, reference compound]
MIC [1]: 0.62 µg/mL (≈ 1.46 µM) | MIC [2, 24]: 0.63 µg/mL (≈ 1.48 µM) | MIC [3, 25]: 0.16 µg/mL (≈ 0.376 µM) | MIC [4]: 0.4 µg/mL (≈ 0.941 µM) | MIC [19, 25]: 6.3 µg/mL (≈ 14.8 µM) | MIC [5]: > 10 µg/mL | MIC [6]: 0.62 µg/mL (≈ 1.46 µM) | MIC ([7]; KB173): 0.62 µg/mL (≈ 1.46 µM) | MIC [8, 26]: > 10 µg/mL | MIC [9, 27]: 0.04 µg/mL (≈ 0.0941 µM) | MIC [11, 28]: > 10 µg/mL | MIC [13, 29]: 0.08 µg/mL (≈ 0.188 µM) | MIC [20, 30]: 0.02 µg/mL (≈ 0.0471 µM) | MIC [14, 25]: 0.16 µg/mL (≈ 0.376 µM) | MIC [15, 31]: > 10 µg/mL | MIC [16, 32]: 2.5 µg/mL (≈ 5.88 µM) | MIC [17, 33]: > 10 µg/mL

COc1cc2oc3c(OC(C)=O)c4ccc5cc6c(c(OC(C)=O)c5c4c(OC(C)=O)c3c(=O)c2cc1OC)C(=O)N1CCOC1(C)C6 (centres unmarked) [Triacetyl Cervinomycin A1, triacetyl Cervinomycin A1]
MIC [1]: 0.156 µg/mL (≈ 0.238 µM) | MIC ([2]; IFO3001): 0.31 µg/mL (≈ 0.473 µM) | MIC [3]: 0.16 µg/mL (≈ 0.244 µM) | MIC [4]: 0.02 µg/mL (≈ 0.0305 µM) | MIC [19]: 0.05 µg/mL (≈ 0.0763 µM) | MIC [5]: > 10 µg/mL | MIC [6]: 0.312 µg/mL (≈ 0.476 µM) | MIC ([7]; KB173): 0.156 µg/mL (≈ 0.238 µM) | MIC ([8]; NIHJJC2): > 10 µg/mL | MIC ([9]; ATCC9341): 0.08 µg/mL (≈ 0.122 µM) | solubility [10, 21]: > 25000 µg/mL | solubility [10, 22]: > 50000 µg/mL | solubility [10, 23]: 1400 µg/mL (≈ 2140 µM) | MIC ([11]; IFO3080): > 10 µg/mL | LD50 [12]: 1620 mg/kg | MIC ([13]; ATCC23749): 0.1 µg/mL (≈ 0.153 µM) | MIC ([20]; ATCC11146): 0.2 µg/mL (≈ 0.305 µM) | MIC [14]: 0.02 µg/mL (≈ 0.0305 µM) | MIC ([15]; IFO3167): > 10 µg/mL | MIC ([16]; ATCC6633): > 0.02 µg/mL | MIC ([17]; ATCC10031): > 10 µg/mL

COc1cc2oc3c(c(=O)c2cc1OC)C(=O)c1c(ccc2cc4c(c(OC(C)=O)c12)C(=O)N1CCOC1(C)C4)C3=O (centres unmarked) [Monoacetyl Cervinomycin A2, monoacetyl Cervinomycin A2]
MIC [1, 25]: 1.25 µg/mL (≈ 2.19 µM) | MIC [2, 24]: 0.16 µg/mL (≈ 0.281 µM) | MIC [3, 25]: 0.31 µg/mL (≈ 0.544 µM) | MIC [4]: 0.02 µg/mL (≈ 0.0351 µM) | MIC [19, 25]: 0.05 µg/mL (≈ 0.0878 µM) | MIC [5, 25]: > 10 µg/mL | MIC [6, 25]: 1.25 µg/mL (≈ 2.19 µM) | MIC ([7]; KB173, inoculum 1 × 10^6 cells/ml, 37° C., read-out: MIC): 0.6 µg/mL (≈ 1.05 µM) | MIC [8, 26]: > 10 µg/mL | MIC [9, 27]: 0.4 µg/mL (≈ 0.702 µM) | solubility [10, 21]: 3000 µg/mL (≈ 5270 µM) | solubility [10, 22]: 5000 µg/mL (≈ 8780 µM) | solubility [10, 23]: 300 µg/mL (≈ 527 µM) | MIC [11, 28]: > 10 µg/mL | MIC [13, 29]: 0.1 µg/mL (≈ 0.176 µM) | MIC [20, 30]: 0.2 µg/mL (≈ 0.351 µM) | MIC [15, 31]: > 10 µg/mL | LD50 (in vivo): 1800 mg/kg | MIC [16, 32]: 0.08 µg/mL (≈ 0.14 µM) | MIC [17, 33]: > 10 µg/mL

COc1cc2oc3c(c(=O)c2cc1OC)C(=O)c1c(ccc2c(C)c4c(c(O)c12)C(=O)N1CCOC1(C)C4)C3=O (centres unmarked) [C-methyl Cervinomycin A2]
antimicrobial activity [18]: substantially equal to those of Cervinomycin A1 and A2

COc1cc2oc3c(c(=O)c2cc1OC)C(=O)c1c(ccc2cc4c(c(OC)c12)C(=O)N1CCOC1(C)C4)C3=O (centres unmarked) [O-methyl Cervinomycin A2]
antimicrobial activity [18]: substantially equal to those of Cervinomycin A1 and A2
